{"source": "patent US6828339B2", "about": "“Amlodipine salt forms and processes for preparing them” (Synthon BV, priority 2001, dated 2004)", "assay_type_in_all_cases": "physicochemical", "key": {"[1]": {"experiment": "Weight gain of dried (anhydrate) salt form on exposure to air", "details": "exposed to air", "source_text": "1(c). A sample of the anhydrate formed in example 1(b) was exposed to air and the weight gain recorded as follows: […]"}, "[2]": {"experiment": "Weight loss on drying in a vacuum oven", "details": "vacuum oven at 40° C. for 65 hours", "procedure": "1(b). 735.1 mg of the product of example 1(a) was dried in a vacuum oven at 40° C. for 65 hours. The weight loss was 0.043 g or 5.85%, which corresponds to 1.9 moles of water per mole of amlodipine."}, "[3]": {"experiment": "Annealing of the dihydrate, form checked by IR", "procedure": "1(d). A sample from example 1(a) was annealed for 10 minutes at 90° C. while another sample of the same product was annealed for 30 minutes at 145° C. […] The IR for the sample annealed for 10 minutes is as shown in FIG. 4 and the IR for the sample annealed for 30 minutes is as shown in FIG. 5."}, "[4]": {"experiment": "Stability in solid state and in solution"}, "[5]": {"experiment": "Light sensitivity", "details": "compared with known anhydrate"}, "[6]": {"details": "compared with known prior art anhydrate"}}, "data": [{"compound": "CCOC(=O)C1=C(COCCN)NC(C)=C(C(=O)OC)C1c1ccccc1Cl.O=S(=O)(O)c1ccccc1", "note": "(centres unmarked) [example 1(b)]", "values": [{"measurement": "moles of water taken up for one mole of amlodipine", "setting": "[1]; 21 hour", "value": "two"}, {"measurement": "Weight after 30 min", "setting": "[1]; weight at start 103.1 mg", "value": 105.7, "unit": "mg"}, {"measurement": "Weight after 1 hour", "setting": "[1]; weight at start 103.1 mg", "value": 107.3, "unit": "mg"}, {"measurement": "Weight after 3.5 hour", "setting": "[1]; weight at start 103.1 mg", "value": 109.3, "unit": "mg"}, {"measurement": "Weight after 21 hour", "setting": "[1]; weight at start 103.1 mg", "value": 109.3, "unit": "mg"}]}, {"compound": "CCOC(=O)C1=C(COCCN)NC(C)=C(C(=O)OC)C1c1ccccc1Cl.O=S(=O)(O)c1ccccc1", "note": "(centres unmarked) [example 2(a)]", "values": [{"measurement": "mole of water taken up for one mole of amlodipine", "setting": "[1]; 21 hour", "value": "one"}, {"measurement": "Weight after 30 min", "setting": "[1]; weight at start 318.6 mg", "value": 320.3, "unit": "mg"}, {"measurement": "Weight after 1 hour", "setting": "[1]; weight at start 318.6 mg", "value": 323.9, "unit": "mg"}, {"measurement": "Weight after 3.5 hour", "setting": "[1]; weight at start 318.6 mg", "value": 328.2, "unit": "mg"}, {"measurement": "Weight after 21 hour", "setting": "[1]; weight at start 318.6 mg", "value": 328.2, "unit": "mg"}]}, {"compound": "amlodipine besylate dihydrate [example 1(a)]", "values": [{"measurement": "moles of water per mole of amlodipine lost", "setting": "[2]", "value": 1.9, "unit": "mol"}, {"measurement": "form after annealing (IR)", "setting": "[3]; annealed for 10 minutes at 90° C.", "value": "converted to the known anhydrate form"}, {"measurement": "form after annealing (IR)", "setting": "[3]; annealed for 30 minutes at 145° C.", "value": "converted to the known anhydrate form"}]}, {"compound": "amlodipine besylate monohydrate", "values": [{"measurement": "stability in solid state", "setting": "[4]; [6]", "value": "equivalent to the known prior art amlodipine besylate anhydrate form"}, {"measurement": "stability in solution", "setting": "[4]; [6]", "value": "equivalent to the known prior art amlodipine besylate anhydrate form"}, {"measurement": "stability of hydrate form", "setting": "[4]; monohydrate compared with dihydrate, conversion by heating", "value": "more stable than the dihydrate form"}, {"measurement": "light sensitivity", "setting": "[5]", "value": "slightly less in comparison to the known anhydrate"}]}]}
